Assay results taken from US10906924B2, “Modulators of indoleamine 2,3-dioxygenase” (GLAXOSMITHKLINE INTELLECTUAL PROPERTY DEVELOPMENT LIMITED, priority 2017, dated 2021).

Biological target: indoleamine 2,3-dioxygenase (IDO1) (Homo sapiens, UniProt P14902)
Test: PBMC IDO1 assay (kynurenine by mass spectrometry)
Type: cell-based
Conditions: human PBMC stimulated with IFN-γ and LPS, 2 days incubation, kynurenine detected by mass spectrometry; read-out: IDO1 PBMC pIC50 (converted)

Sequence of indoleamine 2,3-dioxygenase (IDO1) (P14902 whole entry): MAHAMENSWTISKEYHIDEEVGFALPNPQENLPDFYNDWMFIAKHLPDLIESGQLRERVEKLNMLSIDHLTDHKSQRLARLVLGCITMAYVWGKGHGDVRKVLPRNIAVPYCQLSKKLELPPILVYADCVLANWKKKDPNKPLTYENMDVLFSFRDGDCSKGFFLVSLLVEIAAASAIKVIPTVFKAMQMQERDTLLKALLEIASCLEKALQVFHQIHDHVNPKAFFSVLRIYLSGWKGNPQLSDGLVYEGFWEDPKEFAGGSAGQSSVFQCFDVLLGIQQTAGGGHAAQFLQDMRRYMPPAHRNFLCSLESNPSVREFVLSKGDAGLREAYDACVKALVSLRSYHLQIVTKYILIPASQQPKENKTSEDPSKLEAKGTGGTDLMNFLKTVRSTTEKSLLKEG

Compound | IC50 [µM]
COC(=O)N1CCC2(CC1)C[C@H](NC(=O)c1cccc3cn(COP(=O)(O)O)nc13)c1cc(Br)ccc1O2 [Example 53, 2-amino-2-(hydroxymethyl)propane-1,3-diol hemi((S)-(7-((6-bromo-1′-(methoxycarbonyl)spiro[chroman-2,4′-piperidin]-4-yl)carbamoyl)-2H-indazol-2-yl)methyl phosphate)] | 0.631
CCOC(=O)N1CCC2(CC1)CC(NC(=O)c1cccnc1)c1nc(OC)ccc1O2 (centres unmarked) [Example 35, ethyl 6′-methoxy-4′-(nicotinamido)-3′,4′-dihydrospiro[piperidine-4,2′-pyrano[3,2-b]pyridine]-1-carboxylate] | 0.251
CCOC(=O)N1CCC2(CC1)CC(NC(=O)c1cccc3nc[nH]c13)c1ccccc1O2 (centres unmarked) [Example 39, ethyl 4-(1H-benzo[d]imidazole-7-carboxamido)spiro[chroman-2,4′-piperidine]-1′-carboxylate] | 0.398
CCOC(=O)N1CCC2(CC1)CC(NC(=O)c1cccc3cn[nH]c13)c1ccncc1O2 (centres unmarked) [Example 33, ethyl 4′-(1H-indazole-7-carboxamido)-3′,4′-dihydrospiro[piperidine-4,2′-pyrano[2,3-c]pyridine]-1-carboxylate] | 0.2
CCOC(=O)N1CCC2(CC1)CC(Nc1nnc(C(F)(F)F)s1)c1ccccc1O2 (centres unmarked) [Example 40, ethyl 4-((5-(trifluoromethyl)-1,3,4-thiadiazol-2-yl)amino)spiro[chroman-2,4′-piperidine]-1′-carboxylate] | 0.398
CCOC(=O)N1CCC2(CC1)CC(NC(=O)c1ccccn1)c1ccccc1O2 (centres unmarked) [Example 34, ethyl 4-(picolinamido)spiro[chroman-2,4′-piperidine]-1′-carboxylate] | 0.251
CCOC(=O)N1CCC2(CC1)CC(NC(=O)c1cccnc1)c1ccccc1O2 (centres unmarked) [Example 41, ethyl 4-(nicotinamido)spiro[chroman-2,4′-piperidine]-1′-carboxylate] | 0.501
CCOC(=O)N1CCC2(CC1)CC(NC(=O)c1cccc3cn[nH]c13)c1cc(CO)ccc1O2 (centres unmarked) [Example 18, ethyl 6-(hydroxymethyl)-4-(1H-indazole-7-carboxamido)spiro[chroman-2,4′-piperidine]-1′-carboxylate] | 0.0398
